According to patent US20090137664A1, “SAURURUS CERNUUS COMPOUNDS THAT INHIBIT CELLULAR RESPONSES TO HYPOXIA” (priority 2003, published 2009):

Columns and labels:
[1] = test system: HIF-1β protein; assay: Western blot, HIF-1β protein in T47D nuclear extract; format: cell-based, human
Description: Due to the low abundance of HIF-1α protein in whole cell extract, nuclear extract is prepared and the level of HIF-1α protein in the nuclear extract determined by Western blot. Briefly, exponentially grown T47D cells are exposed to compound 2 for 30 minutes. […] Nuclear extracts are prepared from control and treated cells, separated on a SDS/PAGE gel, the separated proteins transferred to a nitrocellulose membrane, incubated with the primary antibodies (anti-HIF-1α, and anti-HIF-1β monoclonal antibodies, Novus Biologicals), secondary antibody biotinylated anti-mouse immunoglobulin G and Vectastain ABC reagent (Vector Laboratories), and developed using ECL reagents (Amersham Biosciences). […] No change in HIF-1β protein level is observed across the treatments. It is reasonable to conclude that the selectivity of compound 2 towards hypoxia-activated HIF-1 is caused by selective blockade of the hypoxic induction of HIF-1 protein.

[2] = test system: SF-268; assay: NCI in vitro cell line screen (SRB), CNS Cancer SF-268; format: cell-based
Description: (§1) For exemplary purposes, an embodiment of the present invention was tested for activity with respect to certain cancer cell lines. The following Tables show results from in vitro 60-cell line antitumor testing from the US National Cancer Institute Developmental Therapeutics Program (NCI-DTP) on compound 2. The testing was in connection with the NCI's In Vitro Cell Line Screening Project (IVCLSP). Detailed information regarding the experiments and their interpretation is available from the NCI.

[3] = test system: pGL3 Control; assay: luciferase expression from control plasmid pGL3 Control; format: cell-based, human
Description: The chemical structures of active compounds 1 and 2 are shown above. Compound 2 is the known compound manassantin B and 1 is a novel compound of the present invention. […] Similar results are obtained from separate experiments. The IC50 is 3 nM for 2 and 30 nM for 1. Complete inhibition is observed at 10 nM for 2 and 100 nM for 1.

[4] = test system: HS 578T; assay: NCI in vitro cell line screen (SRB), Breast Cancer HS 578T; format: cell-based
Description: as §1

[5] = test system: SN12C; assay: NCI in vitro cell line screen (SRB), Renal Cancer SN12C; format: cell-based
Description: as §1

[6] = test system: SR; assay: NCI in vitro cell line screen (SRB), Leukemia SR; format: cell-based
Description: as §1

[7] = test system: SF-295; assay: NCI in vitro cell line screen (SRB), CNS Cancer SF-295; format: cell-based
Description: as §1

[8] = test system: RPMI-8226; assay: NCI in vitro cell line screen (SRB), Leukemia RPMI-8226; format: cell-based
Description: as §1

[9] = Homo sapiens, read-out: LC50 (the source's name)

How did the HIF-1β protein level [1] turn out when `COc1ccc([C@@H](O)[C@@H](C)Oc2ccc([C@H]3O[C@H](c4ccc(O[C@H](C)[C@H](O)c5ccc6c(c5)OCO6)c(OC)c4)[C@H](C)[C@H]3C)cc2OC)cc1OC` [Compound 2, manassantin B] was run?
Its HIF-1β protein level is “No change”.

What about the TGI [2] of the same compound?
The TGI was over 1.00E−4 Molar.

And the GI50 ([2]; Homo sapiens)?
The GI50 was 4.96 µM.

And the CC50 [2, 9]?
The CC50 was over 100 µM.

What about the “Mean Optical Densities” value ([2]; Log10 Concentration −4.0 Molar) of the same compound?
Its value is 0.685.

And the “Percent Growth” value ([2]; Log10 Concentration −4.0 Molar)?
Its value is 27%.

What about the “Mean Optical Densities” value ([2]; Log10 Concentration −5.0 Molar) of the same compound?
Its value is 0.811.

And the “Percent Growth” value ([2]; Log10 Concentration −5.0 Molar)?
Its value is 40%.

What about the “Mean Optical Densities” value ([2]; Log10 Concentration −6.0 Molar) of the same compound?
Its value is 1.135.

And the “Percent Growth” value ([2]; Log10 Concentration −6.0 Molar)?
Its value is 73%.

What about the “Mean Optical Densities” value ([2]; Log10 Concentration −7.0 Molar) of the same compound?
The value was 1.238.

What about the “Percent Growth” value ([2]; Log10 Concentration −7.0 Molar) of the same compound?
Its value is 83%.

And the “Mean Optical Densities” value ([2]; Log10 Concentration −8.0 Molar)?
The value was 1.213.

And the “Percent Growth” value ([2]; Log10 Concentration −8.0 Molar)?
The value was 81%.

What about the “luciferase expression from the pGL3-Control plasmid” value ([3]; 1,10-phenanthroline experiment (FIG. 5)) of the same compound?
The value was “Neither compound exerts significant effect”.

What about the “luciferase expression from the control plasmid (pGL3 Control)” value ([3]; hypoxia experiment (FIG. 3)) of the same compound?
Its value is “No statistically significant difference”.

And the TGI [4]?
The TGI was over 1.00E−4 Molar.

What about the GI50 ([4]; Homo sapiens) of the same compound?
The GI50 was 10.4 µM.

And the CC50 [4, 9]?
The CC50 was over 100 µM.

What about the “Mean Optical Densities” value ([4]; Log10 Concentration −4.0 Molar) of the same compound?
The value was 0.834.

What about the “Percent Growth” value ([4]; Log10 Concentration −4.0 Molar) of the same compound?
Its value is 17%.

What about the “Mean Optical Densities” value ([4]; Log10 Concentration −5.0 Molar) of the same compound?
Its value is 1.018.

What about the “Percent Growth” value ([4]; Log10 Concentration −5.0 Molar) of the same compound?
Its value is 51%.

What about the “Mean Optical Densities” value ([4]; Log10 Concentration −6.0 Molar) of the same compound?
The value was 1.188.

What about the “Percent Growth” value ([4]; Log10 Concentration −6.0 Molar) of the same compound?
Its value is 82%.

What about the “Mean Optical Densities” value ([4]; Log10 Concentration −7.0 Molar) of the same compound?
The value was 1.267.

What about the “Percent Growth” value ([4]; Log10 Concentration −7.0 Molar) of the same compound?
Its value is 96%.

And the “Mean Optical Densities” value ([4]; Log10 Concentration −8.0 Molar)?
The value was 1.222.

And the “Percent Growth” value ([4]; Log10 Concentration −8.0 Molar)?
Its value is 88%.

And the TGI [5]?
The TGI was over 1.00E−4 Molar.

What about the GI50 ([5]; Homo sapiens) of the same compound?
Its GI50 is 35.2 µM.

And the CC50 [5, 9]?
Its CC50 is over 100 µM.

And the “Mean Optical Densities” value ([5]; Log10 Concentration −4.0 Molar)?
Its value is 0.594.

What about the “Percent Growth” value ([5]; Log10 Concentration −4.0 Molar) of the same compound?
Its value is 42%.

What about the “Mean Optical Densities” value ([5]; Log10 Concentration −5.0 Molar) of the same compound?
Its value is 0.669.

What about the “Percent Growth” value ([5]; Log10 Concentration −5.0 Molar) of the same compound?
The value was 59%.

And the “Mean Optical Densities” value ([5]; Log10 Concentration −6.0 Molar)?
Its value is 0.723.

And the “Percent Growth” value ([5]; Log10 Concentration −6.0 Molar)?
The value was 72%.

And the “Mean Optical Densities” value ([5]; Log10 Concentration −7.0 Molar)?
The value was 0.775.

What about the “Percent Growth” value ([5]; Log10 Concentration −7.0 Molar) of the same compound?
The value was 84%.

And the “Mean Optical Densities” value ([5]; Log10 Concentration −8.0 Molar)?
The value was 0.770.

And the “Percent Growth” value ([5]; Log10 Concentration −8.0 Molar)?
Its value is 82%.

What about the TGI [6] of the same compound?
Its TGI is over 1.00E−4 Molar.

And the CC50 [6, 9]?
Its CC50 is over 100 µM.

And the “Mean Optical Densities” value ([6]; Log10 Concentration −4.0 Molar)?
The value was 0.429.

What about the “Percent Growth” value ([6]; Log10 Concentration −4.0 Molar) of the same compound?
Its value is 22%.

And the “Mean Optical Densities” value ([6]; Log10 Concentration −5.0 Molar)?
Its value is 0.561.

And the “Percent Growth” value ([6]; Log10 Concentration −5.0 Molar)?
The value was 39%.

What about the “Mean Optical Densities” value ([6]; Log10 Concentration −6.0 Molar) of the same compound?
The value was 0.685.

What about the “Percent Growth” value ([6]; Log10 Concentration −6.0 Molar) of the same compound?
The value was 54%.

What about the “Mean Optical Densities” value ([6]; Log10 Concentration −7.0 Molar) of the same compound?
The value was 0.637.

And the “Percent Growth” value ([6]; Log10 Concentration −7.0 Molar)?
Its value is 48%.

What about the “Mean Optical Densities” value ([6]; Log10 Concentration −8.0 Molar) of the same compound?
Its value is 0.616.

What about the “Percent Growth” value ([6]; Log10 Concentration −8.0 Molar) of the same compound?
Its value is 46%.

What about the TGI [7] of the same compound?
The TGI was 7.46E−5 Molar.

And the GI50 ([7]; Homo sapiens)?
Its GI50 is under 0.01 µM.

What about the CC50 [7, 9] of the same compound?
Its CC50 is over 100 µM.

What about the “Mean Optical Densities” value ([7]; Log10 Concentration −4.0 Molar) of the same compound?
The value was 0.523.

What about the “Percent Growth” value ([7]; Log10 Concentration −4.0 Molar) of the same compound?
Its value is −2%.

And the “Mean Optical Densities” value ([7]; Log10 Concentration −5.0 Molar)?
The value was 0.621.

And the “Percent Growth” value ([7]; Log10 Concentration −5.0 Molar)?
The value was 11%.

And the “Mean Optical Densities” value ([7]; Log10 Concentration −6.0 Molar)?
Its value is 0.851.

What about the “Percent Growth” value ([7]; Log10 Concentration −6.0 Molar) of the same compound?
Its value is 39%.

What about the “Mean Optical Densities” value ([7]; Log10 Concentration −7.0 Molar) of the same compound?
The value was 0.811.

And the “Percent Growth” value ([7]; Log10 Concentration −7.0 Molar)?
The value was 34%.

What about the “Mean Optical Densities” value ([7]; Log10 Concentration −8.0 Molar) of the same compound?
The value was 0.751.

What about the “Percent Growth” value ([7]; Log10 Concentration −8.0 Molar) of the same compound?
Its value is 27%.

What about the TGI [8] of the same compound?
The TGI was 1.45E−5 Molar.

And the GI50 ([8]; Homo sapiens)?
Its GI50 is 0.337 µM.

What about the “Mean Optical Densities” value ([8]; Log10 Concentration −4.0 Molar) of the same compound?
The value was 0.213.

And the “Percent Growth” value ([8]; Log10 Concentration −4.0 Molar)?
The value was −33%.

And the “Mean Optical Densities” value ([8]; Log10 Concentration −5.0 Molar)?
Its value is 0.356.

What about the “Percent Growth” value ([8]; Log10 Concentration −5.0 Molar) of the same compound?
Its value is 6%.

What about the “Mean Optical Densities” value ([8]; Log10 Concentration −6.0 Molar) of the same compound?
Its value is 0.532.

And the “Percent Growth” value ([8]; Log10 Concentration −6.0 Molar)?
The value was 34%.

And the “Mean Optical Densities” value ([8]; Log10 Concentration −7.0 Molar)?
Its value is 0.737.

What about the “Percent Growth” value ([8]; Log10 Concentration −7.0 Molar) of the same compound?
Its value is 67%.

And the “Mean Optical Densities” value ([8]; Log10 Concentration −8.0 Molar)?
Its value is 0.766.

What about the “Percent Growth” value ([8]; Log10 Concentration −8.0 Molar) of the same compound?
The value was 72%.
